Assay results: patent US5905089A, “Use of sesquiterpene lactones for treatment of severe inflammatory disorders” (Board of Supervisors of Louisiana State University and …, priority 1998, dated 1999)
Blank lines part the entries; values can stand above or below the compound they belong to.

How the values were obtained:
COX-2 [1] = experiment: Inhibition of the expression of COX-2 in LPS-stimulated macrophages (Table 1); assay type: cell-based; conditions: for IC50, inhibiting the expression of COX-2: IC50 determined at multiple dose levels; for inhibitory activity (COX-2 expression), in words: comparison among tested compounds
Experimental: Rat (Sprague-Dawley) alveolar macrophages were collected by broncho-alveolar lavage as described by Lee et al., J. Biol. Chem., vol.
Alveolar macrophages pretreated with aspirin were incubated with LPS (10 μg/ml) and various concentrations of parthenolide for 16h. The activity of de novo synthesized COX-2 was determined by measuring the levels of PGE2 produced from exogenous arachidonic acid. Activity of TNFα was determined by bioassay using L929 cells as described by Aggarwal et al., J. Biol. Chem., vol. […] Values in FIG. 2 are the means of triplicate samples for TNFα and duplicate samples for PGE2.

tumor = conditions: cited from earlier work
MAPKs = experiment: Tyrosine phosphorylation / activation of MAPKs in RAW 264.7 cells; assay type: cell-based, murine; conditions: for effect on parthenolide inhibition of LPS-induced activation of MAPKs: parthenolide 1 μg/ml with DTT 100 μM, 2-ME 50 μM or Cys 150 μM, LPS 1 μg/ml, 30 min, FIG. 6A
Experimental: (§1) Rat (Sprague-Dawley) alveolar macrophages were collected by broncho-alveolar lavage as described by Lee et al., J. Biol. Chem., vol. 267, pp. 25934-25938 (1992). The murine macrophage cell line RAW 264.7 (ATCC no. TIB-71) was cultured in Dubecco's modified Eagle's medium (DMEM) containing 10% heat-inactivated fetal bovine serum (FBS, Intergen). For the cyclooxygenase activity assay, cells were seeded in 24 well plates, and after near-confluency, cells were treated with aspirin (250 μM) for 2.5h to inactivate endogenous cyclooxygenase. […] COX activity was determined by measuring prostaglandin E2 concentrations in cells incubated with arachidonic acid (30 μM) for 10 minutes as described in Lee et al. (1992).
(§2) This detection technique was carried out essentially as described in Chanmugan et al. (1995) using 4G10 monoclonal antiphosphotyrosine antibody (UBI) and the ECL detection system (Amersham).
(§3) Parthenolide suppressed LPS-stimulated tyrosine phosphorylation of various proteins in RAW 264.7 cells as assessed by antiphosphotyrosine immunoblot, depicted in FIG. 5A. This inhibition was correlated with the suppressed expression of COX-2 and IL-1α. RAW 264.7 cells were pretreated with parthenolide in various concentrations or with herbimycin A (0.5 μg/ml) for 3h, and then stimulated with LPS (1 μg/ml) in the presence of the inhibitors for 30 min. […] Therefore, the extent of tyrosine phosphorylation of JNK-1 was assessed by the electrophoretic mobility shift of phosphorylated JNK-1 as shown in FIG. 5B. Parthenolide inhibited tyrosine phosphorylation of JNK-1. Another protein tyrosine kinase inhibitor, herbimycin A ([…]), inhibited tyrosine phosphorylation of the MAPK subfamily.
The mechanism by which parthenolide inhibits protein tyrosine phosphorylation is not currently known. It has been speculated that the tyrosine kinase inhibitor herbimycin A inactivates p60^v-src kinase by irreversibly binding to the sulphydryl (SH) groups of p60^v-src kinase. Y. Uehara et al., Biochem. Biophys. Res. Commun., vol. 163, pp. 803-809 (1989). The inactivation by herbimycin may occur through conjugation between highly polarized double bonds in the benzoquinone moiety of herbimycin A and the SH group of sulphydryl compounds. Without wishing to be bound by this theory, the α-methylenebutyrolactone in parthenolide may interact with biological nucleophiles such as sulphydryl groups. Indeed, pretreating cells with sulphydryl compounds abrogated the inhibitory effect of parthenolide on LPS-induced activation of MAPKs as shown in FIG. 6A. In FIG. 6, RAW 264.7 cells were pretreated with parthenolide (1 μg/ml) in the presence of DTT (dithiothreitol, 100 μM), 2-ME (2-mercaptoethanol, 50 μM), or Cys (L-cysteine, 150 μM), and were then stimulated with LPS (1 μg/ml). Cells were incubated for 30 min for antiphosphotyrosine immunoblot analysis (FIG. 6A) and 8h for COX-2 and IL-1α Western blot analyses (FIG. 6B). […] Whether parthenolide inhibits protein tyrosine phosphorylation by directly inhibiting PTKs or by inhibiting other target protein(s) that affect the activity of PTKs is not currently known.

COX-2 [2] = experiment: COX-2 expression in LPS-stimulated RAW 264.7 cells (Western blot); assay type: cell-based, murine; conditions: parthenolide 1 μg/ml with DTT 100 μM, 2-ME 50 μM or Cys 150 μM; LPS 1 μg/ml, 8h; FIG. 6B
Experimental: as §1
(§4) The protein levels of COX-2 and GAPDH were assessed by Western blot analysis using polyclonal antibodies as described in Lee et al. (1992). Polyclonal antibodies for IL-1α and JNK-1 were purchased from Genzyme and Santa Cruz Biotech, respectively.
as §3
(§5) The mechanism by which parthenolide inhibits protein tyrosine phosphorylation is not currently known. It has been speculated that the tyrosine kinase inhibitor herbimycin A inactivates p60^v-src kinase by irreversibly binding to the sulphydryl (SH) groups of p60^v-src kinase. Y. Uehara et al., Biochem. Biophys. Res. Commun., vol. 163, pp. 803-809 (1989). The inactivation by herbimycin may occur through conjugation between highly polarized double bonds in the benzoquinone moiety of herbimycin A and the SH group of sulphydryl compounds. Without wishing to be bound by this theory, the α-methylenebutyrolactone in parthenolide may interact with biological nucleophiles such as sulphydryl groups. Indeed, pretreating cells with sulphydryl compounds abrogated the inhibitory effect of parthenolide on LPS-induced activation of MAPKs as shown in FIG. 6A. […]

IL-1α = IL-1α expression in LPS-stimulated RAW 264.7 cells (Western blot); assay type: cell-based, murine; conditions: parthenolide 1 μg/ml with DTT 100 μM, 2-ME 50 μM or Cys 150 μM; LPS 1 μg/ml, 8h; FIG. 6B
Experimental: as §1, §4, §3, §5

[3] = tested on: epidermal growth factor receptor; conditions: in vitro; cited from earlier work
ERK-2 [4] = experiment: Tyrosine phosphorylation of ERK-2 in RAW 264.7 cells (antiphosphotyrosine immunoblot); assay type: cell-based, murine; conditions: 3h pretreatment, LPS 1 μg/ml 30 min; FIG. 5A
Experimental: as §1, §2
(§6) Parthenolide suppressed LPS-stimulated tyrosine phosphorylation of various proteins in RAW 264.7 cells as assessed by antiphosphotyrosine immunoblot, depicted in FIG. 5A. This inhibition was correlated with the suppressed expression of COX-2 and IL-1α. […] Therefore, the extent of tyrosine phosphorylation of JNK-1 was assessed by the electrophoretic mobility shift of phosphorylated JNK-1 as shown in FIG. 5B. […]

ERK-1 [5] = experiment: Tyrosine phosphorylation of ERK-1 in RAW 264.7 cells (antiphosphotyrosine immunoblot); assay type: cell-based, murine; conditions: 3h pretreatment, LPS 1 μg/ml 30 min; FIG. 5A
Experimental: as §1, §2, §6

ERK-1 [6] = experiment: Kinase activity of ERK-1 in RAW 264.7 cells (in-gel kinase assay, MBP substrate); assay type: cell-based, murine; conditions: 3h pretreatment, LPS 1 μg/ml 30 min; FIG. 5
Experimental: as §1
(§7) This assay was performed according to the method described by Kameshita et al., Anal. Biochem., vol. 183, pp. 139-143 (1989) using myelin basic protein (MBP) as a substrate.
as §6

ERK-2 [7] = experiment: Kinase activity of ERK-2 in RAW 264.7 cells (in-gel kinase assay, MBP substrate); assay type: cell-based, murine; conditions: 3h pretreatment, LPS 1 μg/ml 30 min; FIG. 5
Experimental: as §1, §7, §6

IC50, inhibiting the expression of COX-2 (COX-2 [1]): 5.5 µg/mL
Compound: C[C@@H]1C[C@@H]2OC(=O)[C@]3(C)[C@H]2[C@@H](OC3(C)O)[C@]2(C)C(=O)C=C[C@@H]12 (stereo partly shown) [Compound 10, Tenulin]
antitumor activity (tumor): antitumor activity
inhibitory activity (COX-2 expression), in words (COX-2 [1]): significantly less than that of compounds 1-9

IC50, inhibiting the expression of COX-2 (COX-2 [1]): > 100 µg/mL
Compound: CC1C(=O)OC2C1CCC1(C)OC1CCC1(C)OC21 (stereo not shown) [Compound 12, 1(10)epoxy-11,13-dihydroparthenolide]
inhibitory activity (COX-2 expression), in words (COX-2 [1]): loss of inhibitory activity

IC50, inhibiting the expression of COX-2 (COX-2 [1]): 0.5 µg/mL
Compound: C=C1C(=O)O[C@@H]2/C=C(\C)[C@@H]3O[C@@H]3/C=C(/C(=O)OC)[C@H](O)[C@@H](OC(=O)[C@]3(C)O[C@@H]3C)[C@@H]12 [Compound 5, Melampodin A]
inhibitory activity (COX-2 expression), in words (COX-2 [1]): activities similar to that of parthenolide

IC50, inhibiting the expression of COX-2 (COX-2 [1]): 0.1 µg/mL
Compound: Encelin [Compound 2]
inhibitory activity (COX-2 expression), in words (COX-2 [1]; listed as Encelin): most active compound tested
inhibitory activity (COX-2 expression), in words (COX-2 [1]; listed as encelin): highest inhibitory activity

IC50, inhibiting the expression of COX-2 (COX-2 [1]): > 100 µg/mL
Compound: CC1=CCCC2(C)OC2C2OC(=O)C(C)C2CC1 (stereo not shown) [Compound 11, 11,13-dihydroparthenolide]
inhibitory activity (COX-2 expression), in words (COX-2 [1]): loss of inhibitory activity

IC50, inhibiting the expression of COX-2 (COX-2 [1]): 1.6 µg/mL
Compound: C=C1C(=O)O[C@@H]2/C=C(\C)CC/C=C(\C)CC[C@@H]12 [Compound 9, Costunolide]

IC50, inhibiting the expression of COX-2 (COX-2 [1]): 1.3 µg/mL
Compound: C=C1C(=O)O[C@@H]2[C@H]1CC[C@H](C)[C@]1(CCC(=O)O1)[C@@]2(C)O [Compound 8, Psilostachyin A]

The next lines start with the compound.

Compound: CC1=C2[C@H]3OC(=O)[C@@H](C)[C@@H]3CC[C@@]2(C)C=CC1=O [Compound 13, Santonin, reference compound]
IC50, inhibiting the expression of COX-2 (COX-2 [1]): > 100 µg/mL

Compound: N[C@@H](CS)C(=O)O [Cys, L-cysteine]
effect on parthenolide inhibition of LPS-induced activation of MAPKs (MAPKs): abrogated
effect on parthenolide-inhibited expression of COX-2 (COX-2 [2]): recovered expression
effect on parthenolide-inhibited expression of IL-1α (IL-1α): recovered expression

Compound: O=c1c(-c2ccc(O)cc2)coc2cc(O)cc(O)c12 [genistein]
tyrosine-specific protein kinase activity of the EGF receptor [3]: inhibited

Compound: OCCS [Compound 2-ME, 2-mercaptoethanol]
effect on parthenolide inhibition of LPS-induced activation of MAPKs (MAPKs): abrogated
effect on parthenolide-inhibited expression of COX-2 (COX-2 [2]): recovered expression
effect on parthenolide-inhibited expression of IL-1α (IL-1α): recovered expression

Compound: COC1C=CC=C(C)C(=O)NC2=CC(=O)C=C(C2=O)C(OC)C(C)CC(OC)C(OC)C(C)C=C(C)C1OC(N)=O (stereo not shown) [herbimycin A, reference compound]
tyrosine phosphorylation of the MAPK subfamily (MAPKs; 3h pretreatment (herbimycin A 0.5 μg/ml), LPS 1 μg/ml 30 min): inhibited
tyrosine phosphorylation of ERK-2 (ERK-2 [4]): dose-dependent inhibition
tyrosine phosphorylation of ERK-1 (ERK-1 [5]): dose-dependent inhibition
kinase activity of ERK-1 (ERK-1 [6]): dose-dependent inhibition
kinase activity of ERK-2 (ERK-2 [7]): dose-dependent inhibition

Compound: C=C1C(=O)O[C@@H]2C[C@@H](C)[C@@H]3C=CC(=O)[C@@]3(C)[C@@H](O)[C@H]12 [helenalin, reference compound]
antitumor activity (tumor): some antitumor activity

Compound: O[C@H](CS)[C@H](O)CS (racemic) [DTT, dithiothreitol]
effect on parthenolide inhibition of LPS-induced activation of MAPKs (MAPKs): abrogated
effect on parthenolide-inhibited expression of COX-2 (COX-2 [2]): recovered expression
effect on parthenolide-inhibited expression of IL-1α (IL-1α): recovered expression
